Experimental findings from ChEMBL document CHEMBL3351529, “Triazolopyridyl ketones as a novel class of antileishmanial agents. DNA binding and BSA interaction” (Bioorg Med Chem, 2014) are described below.

A short description of series [1]: Selectivity index, ratio of CC50 for mouse J774 cells to IC50 for promastigote form of Leishmania amazonensis MHOM/Br/79/Maria. Type of series: functional.
A short description of series [2]: Selectivity index, ratio of CC50 for mouse J774 cells to IC50 for promastigote form of Leishmania infantum MCAN/ES/96/BCN150. Type of series: functional.
Series [3] has as its system Leishmania amazonensis. Description: Antileishmanial activity against promastigote form of Leishmania amazonensis MHOM/Br/79/Maria after 48 hrs by resazurin fluorescence assay. Type of series: functional, organism-based. The note with it: for pIC50: Leishmania amazonensis, MHOM/Br/79/Maria, 48 h, read-out: IC50.
Series [4] is described as follows: Selectivity index, ratio of CC50 for mouse J774 cells to IC50 for promastigote form of Leishmania guyanensis 141/93. The class given is functional.
A further series concerns Leishmania braziliensis. Description: Antileishmanial activity against promastigote form of Leishmania braziliensis 2903 after 48 hrs by resazurin fluorescence assay. The class given is functional, organism-based. The note with it: Leishmania braziliensis, 2903, 48 h. In general terms: Resazurin is reduced to fluorescent resorufin, in cell work by metabolically active cells.

Series [5] can be described thus: Cytotoxicity against mouse J774 cells assessed as reduction in cell viability after 24 hrs by resazurin fluorescence assay. Type of series: cell-based.
Another series has as its system Leishmania guyanensis. Description: Antileishmanial activity against promastigote form of Leishmania guyanensis 141/93 after 48 hrs by resazurin fluorescence assay. Type of series: functional, organism-based. Conditions: 141/93, 48 h.
Series [6] concerns Leishmania infantum. Description: Antileishmanial activity against promastigote form of Leishmania infantum MCAN/ES/96/BCN150 after 48 hrs by resazurin fluorescence assay. Type of series: functional, organism-based. The note with it: for pIC50: Leishmania infantum, MCAN/ES/96/BCN150, 48 h, read-out: IC50.
Series [7] can be described thus: Selectivity index, ratio of CC50 for mouse J774 cells to IC50 for promastigote form of Leishmania braziliensis 2903. The class given is functional.
Series [8] deals with Calf thymus DNA. As to the kind of experiment: Binding affinity to calf thymus DNA at 10 uM by UV-visible titration method. The class given is nucleic-acid assay. Conditions: Bos taurus.
Series [9] relates to Leishmania infantum. As to the kind of experiment: Antileishmanial activity against amastigote form of Leishmania infantum MCAN/ES/96/BCN150 infected in mouse J774 cells assessed as reduction in intracellular amastigotes compound treated for 48 hrs followed by 3 days incubation for transformation by resazurin fluorescence assay. Type of series: functional, organism-based. Conditions: MCAN/ES/96/BCN150, J774.

Series [10] has as its system Calf thymus DNA. Description: Binding affinity to calf thymus DNA by UV-visible titration method. Type of series: nucleic-acid assay. Conditions: Bos taurus.
Series [11] relates to Leishmania infantum. Description: Antileishmancidal activity against amastigote form of Leishmania infantum MCAN/ES/96/BCN150 infected in BALB/c mouse assessed as reduction of parasite burden in spleen at 5 mg/kg, ip qd for 5 consecutive days starting 21 days post infection measured after 7 days relative to untreated control. The class given is functional. The arrangement: scale not given: the % may be the effect or the level left. The note with it: route intraperitoneal.

The subject of series [12] is Leishmania amazonensis. Description: Antileishmanial activity against amastigote form of Leishmania amazonensis MHOM/Br/79/Maria infected in mouse J774 cells assessed as reduction in intracellular amastigotes compound treated for 48 hrs followed by 3 days incubation for transformation by resazurin fluorescence assay. The class given is functional, organism-based.
Series [13] is described as follows: Selectivity index, ratio of CC50 for mouse J774 cells to IC50 for amastigote form of Leishmania infantum MCAN/ES/96/BCN150 infected in mouse J774 cells. The class given is functional.
For series [14], the target named is T1, Albumin (Bos taurus, UniProt P02769). Description: Competitive binding affinity to bovine serum albumin site 1 assessed as quenching constant after 10 mins by fluorimetric titration method in presence of warfarin. Type of series: ADME. Conditions: cattle, isolated protein.
For the next series, the species on record is Bos taurus. As to the kind of experiment: Effect on calf thymus DNA viscosity at 1 to 10 uM.
The subject of series [15] is Leishmania infantum. Description: Antileishmancidal activity against amastigote form of Leishmania infantum MCAN/ES/96/BCN150 infected in BALB/c mouse assessed as reduction of parasite burden in liver at 5 mg/kg, ip qd for 5 consecutive days starting 21 days post infection measured after 7 days relative to untreated control. The class given is functional.
Series [16] deals with T1, Albumin. As to the kind of experiment: Binding affinity to bovine serum albumin assessed as quenching constant after 10 mins by Stern-Volmer plot method. Type of series: ADME. The note with it: cattle, isolated protein.
Series [17] has as its system Calf thymus DNA. Description: Binding affinity to calf thymus DNA assessed as hypochromic effect at DNA-compound ratio of 3 by UV-visible titration method. The class given is nucleic-acid assay. Conditions: Bos taurus.
For series [18], the target named is T1, Albumin. Description: Binding affinity to bovine serum albumin after 10 mins by fluorimetric titration method. Conditions: cattle, isolated protein. Type of series: ADME.
Series [19] deals with T1, Albumin. Description: Competitive binding affinity to bovine serum albumin site 2 assessed as quenching constant after 10 mins by fluorimetric titration method in presence of ibuprofen. The class given is ADME. The note with it: cattle, isolated protein.
A short description of series [20]: Selectivity index, ratio of CC50 for mouse J774 cells to IC50 for amastigote form of Leishmania amazonensis MHOM/Br/79/Maria infected in mouse J774 cells. Type of series: functional.
In series [21] the test system is Mus musculus. As to the kind of experiment: Toxicity in BALB/c mouse assessed as gross weight loss at 5 mg/kg, ip qd for 5 consecutive days. The class given is organism-based. The arrangement: dose 5 mg/kg, route intraperitoneal. Conditions: in vivo.
Series [22] deals with Mus musculus. As to the kind of experiment: Toxicity in BALB/c mouse assessed as hair loss at 5 mg/kg, ip qd for 5 consecutive days. The class given is organism-based. More on the design: dose 5 mg/kg, route intraperitoneal. The note with it: in vivo.

For orientation: pIC50 means the IC50 on a negative log10 scale, so that one unit is a factor of ten. What is called CC50 is the concentration at which the toxic effect on the cells reaches its halfway point.

pIC50: −log10 of the molar value. The source made the active and inactive calls. No cut-off for these calls is given here.

T1 sequence (P02769 whole entry): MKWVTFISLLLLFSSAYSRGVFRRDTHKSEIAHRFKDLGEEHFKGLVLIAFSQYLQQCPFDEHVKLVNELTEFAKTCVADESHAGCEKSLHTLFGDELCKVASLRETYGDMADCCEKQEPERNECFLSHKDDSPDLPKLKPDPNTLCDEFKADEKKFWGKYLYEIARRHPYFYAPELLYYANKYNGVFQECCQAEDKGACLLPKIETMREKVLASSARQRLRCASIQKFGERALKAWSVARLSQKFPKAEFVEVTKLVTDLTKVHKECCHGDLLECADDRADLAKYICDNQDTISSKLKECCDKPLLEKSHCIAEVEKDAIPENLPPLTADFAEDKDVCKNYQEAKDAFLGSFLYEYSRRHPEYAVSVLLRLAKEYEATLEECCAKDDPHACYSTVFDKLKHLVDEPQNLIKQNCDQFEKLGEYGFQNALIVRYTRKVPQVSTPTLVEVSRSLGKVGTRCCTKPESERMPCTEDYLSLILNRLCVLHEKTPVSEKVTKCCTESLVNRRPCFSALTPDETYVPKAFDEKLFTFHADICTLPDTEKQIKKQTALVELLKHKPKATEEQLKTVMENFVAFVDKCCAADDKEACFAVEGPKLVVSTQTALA

Consider `O=C(c1ccccn1)c1cccc2c(-c3ccccc3)nnn12`, for which the “Ratio CC50/IC50” value in series [1] is listed as over 2.8; in series [2], over 1.9; in [4], over 2.4; in [7] it was over 1.8. In addition, the pIC50 was 3.98 in the series on Leishmania amazonensis [3], 3.77 in the series on Leishmania braziliensis, 3.90 in the series with Leishmania guyanensis and 3.76 in the series on Leishmania infantum [6]. In addition, the half-maximal cytotoxic concentration (CC50) at 24 h in series [5] was at least 300 µM.
For the compound `O=C(c1ccccn1)c1cccc(-c2nnn3ccccc23)n1`, the “Ratio CC50/IC50” value in series [1] was over 2.8; in [2] it was over 1.3; in [4] it was over 2.8; in series [7] it was over 1.6. The pIC50 with Leishmania amazonensis [3] is 3.97; in the series with Leishmania braziliensis it was 3.72; in the series on Leishmania guyanensis, 3.96; in the series on Leishmania infantum [6] it was 3.64. For the same compound, the half-maximal cytotoxic concentration (CC50) at 24 h in [5] was at least 300 µM. The result in the series with Calf thymus DNA [8] was inactive.
Turning to `O=C(c1cccc(C(=O)c2cccc(-c3nnn4ccccc34)n2)n1)c1cccc(-c2nnn3ccccc23)n1`, the “Ratio CC50/IC50” value in series [1] is over 5.6; in series [2] it was over 3; in series [13], over 7.9; in [4], over 10.4; in [7] it was over 5.1. Also, the pIC50 with Leishmania infantum [9] was 4.42; in the series on Leishmania amazonensis [3] it was 4.27; in the series with Leishmania braziliensis it was 4.23; in the series on Leishmania guyanensis, 4.54; in the series on Leishmania infantum [6], 4.00. Besides, the Kb in the series on Calf thymus DNA [10] worked out at 3.26 ×10⁵ /M; at Albumin [14], 8.2 ×10³ /M; at Albumin [18], 1.9 ×10⁴ /M; at Albumin [19] it was 3.8 ×10³ /M. The Activity was found to be 78.2% in the series with Leishmania infantum [11] and 60% with Calf thymus DNA [17]. The IC50 entry in the series with Leishmania amazonensis [12] (j774) is listed as “Not Active”. Further, the CC50 at 24 h in series [5] is at least 300 µM. Further, the outcome in the series listed under Bos taurus and in the series with Leishmania infantum [15] was inactive. The KSV at Albumin [16] was 2.4 ×10⁵ /M. The same compound came in with a Kq on Albumin [18] of 2.4 ×10¹³ /M/sec.
`CCCCCCCCCCCCCCCCOP(=O)([O-])OCC[N+](C)(C)C` [MILTEFOSINE]: the “Ratio CC50/IC50” value worked out at 5.8 in [1]; 7.7 in [2]; 6.5 in [20]; 5.7 in [13]; 3.1 in series [4]; 6 in series [7]. In addition, the pIC50 with Leishmania amazonensis [3] was 4.55; in the series with Leishmania braziliensis, 4.57; with Leishmania guyanensis, 4.27; in the series with Leishmania infantum [6] it was 4.67. The CC50 at 24 h in series [5] came to 164 µM.
As for `O=C(c1cccc(-c2nnn3ccccc23)n1)c1cccc(-c2nnn3ccccc23)n1`, the “Ratio CC50/IC50” value is on record as over 3.3 in series [1]; over 6.3 in [2]; over 2.6 in series [20]; over 15.3 in series [13]; over 10.2 in series [4]; over 11.2 in series [7]. In addition, the negative-log IC50 (pIC50) in the series with Leishmania infantum [9] was 4.71; with Leishmania amazonensis [12] (Leishmania amazonensis, MHOM/Br/79/Maria, J774, read-out: IC50), 3.94; with Leishmania amazonensis [3] it was 4.05; in the series on Leishmania braziliensis, 4.57; with Leishmania guyanensis it was 4.53; with Leishmania infantum [6] it was 4.33. In addition, the Kb in the series with Calf thymus DNA [10] came to 1.14 ×10⁵ /M; at Albumin [14] it was 9.3 ×10³ /M; on Albumin [18], 2.5 ×10⁴ /M; on Albumin [19] it was 5.3 ×10³ /M. Besides, the Activity in the series with Leishmania infantum [11] was 99.3%; in the series with Mus musculus [21], “Non-toxic”; in the series on Leishmania infantum [15] (route intraperitoneal) it was 92.8%; in the series with Mus musculus [22], “Non-toxic”; in the series on Calf thymus DNA [17], 60%. Further, the CC50 at 24 h in series [5] is at least 300 µM. Further, in the series filed under Bos taurus, the result was inactive. Also, the KSV at Albumin [16] came to 2.6 ×10⁵ /M. This compound also came in with a Kq on Albumin [18] of 2.6 ×10¹³ /M/sec.
As for `O=C(c1cccc2c(-c3ccccc3)nnn12)c1cccc2c(-c3ccccc3)nnn12`, the IC50 result with Leishmania amazonensis [3] and in the series on Leishmania infantum [6] was “Not Active” in each case. Further, the “Ratio CC50/IC50” value is over 4.5 in [4] and over 2.5 in series [7]. Also, the pIC50 in the series with Leishmania braziliensis is 4.25; in the series with Leishmania guyanensis, 4.27. Further, the CC50 at 24 h in [5] was at least 300 µM.
